Experimental data taken from US5202315A, “Cephalosporin compounds” (Lucky, Ltd., priority 1989, dated 1993).
≈ marks a conversion by molar mass, not a printed value.

Legend:
Type in all cases: cell-based
[1] = tested on: Acinetobacter calcoaceticus ATCC 15473; test: Antibacterial activity, MIC; conditions: ATCC15473, ATCC 15473, agar two-fold dilution, 37° C., 20 hours, read-out: MIC
Procedure, shortened: (§1)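 Values reflect agar dilution testing: Mueller-Hinton medium, two-fold compound series, 2 μl inoculum of 10^7 CFU/ml, 20 h incubation at 37 °C.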

[2] = tested on: Bacillus cereus ATCC 11778; test: Antibacterial activity, MIC; conditions: ATCC11778, ATCC 11778, agar two-fold dilution, 37° C., 20 hours, read-out: MIC
Procedure, shortened: as §1

[3] = tested on: Bacillus megaterium ATCC 9885; test: Antibacterial activity, MIC; conditions: Priestia megaterium, ATCC9885; ATCC 9885; agar two-fold dilution, 37° C., 20 hours; read-out: MIC
Procedure, shortened: as §1

[4] = tested on: Citrobacter freundii ATCC 8090; test: Antibacterial activity, MIC; conditions: ATCC8090, ATCC 8090, agar two-fold dilution, 37° C., 20 hours, read-out: MIC
Procedure, shortened: as §1

[5] = tested on: Enterobacter aerogenes ATCC 29751; test: Antibacterial activity, MIC; conditions: Klebsiella aerogenes, ATCC29751; ATCC 29751; agar two-fold dilution, 37° C., 20 hours; read-out: MIC
Procedure, shortened: as §1

[6] = tested on: Enterobacter cloacae ATCC 27508; test: Antibacterial activity, MIC; conditions: ATCC27508, ATCC 27508, agar two-fold dilution, 37° C., 20 hours, read-out: MIC
Procedure, shortened: as §1

[7] = tested on: Escherichia coli ATCC 10536; test: Antibacterial activity, MIC; conditions: ATCC10536, agar two-fold dilution, 37° C., 20 hours
Procedure, shortened: as §1

[8] = tested on: Escherichia coli ATCC 25922; test: Antibacterial activity, MIC; conditions: ATCC25922, agar two-fold dilution, 37° C., 20 hours
Procedure, shortened: as §1

[9] = tested on: Klebsiella pneumoniae ATCC 10031; test: Antibacterial activity, MIC; conditions: ATCC10031, ATCC 10031, agar two-fold dilution, 37° C., 20 hours, read-out: MIC
Procedure, shortened: as §1

[10] = tested on: Micrococcus luteus ATCC 9341; test: Antibacterial activity, MIC; conditions: ATCC9341, ATCC 9341, agar two-fold dilution, 37° C., 20 hours, read-out: MIC
Procedure, shortened: as §1

[11] = tested on: Morganella morganii ATCC 8076h; test: Antibacterial activity, MIC; conditions: ATCC8076H, agar two-fold dilution, 37° C., 20 hours
Procedure, shortened: as §1

[12] = tested on: Proteus mirabilis ATCC 25933; test: Antibacterial activity, MIC; conditions: ATCC25933, ATCC 25933, agar two-fold dilution, 37° C., 20 hours, read-out: MIC
Procedure, shortened: as §1

[13] = tested on: Proteus vulgaris ATCC 6059; test: Antibacterial activity, MIC; conditions: ATCC6059, ATCC 6059, agar two-fold dilution, 37° C., 20 hours, read-out: MIC
Procedure, shortened: as §1

[14] = tested on: Providencia rettgeri ATCC 9250; test: Antibacterial activity, MIC; conditions: ATCC9250, agar two-fold dilution, 37° C., 20 hours
Procedure, shortened: as §1

[15] = tested on: Pseudomonas aeruginosa ATCC 10145; test: Antibacterial activity, MIC; conditions: ATCC10145, ATCC 10145, agar two-fold dilution, 37° C., 20 hours, read-out: MIC
Procedure, shortened: as §1

[16] = tested on: Pseudomonas aeruginosa ATCC 25619; test: Antibacterial activity, MIC; conditions: ATCC25619, ATCC 25619, agar two-fold dilution, 37° C., 20 hours, read-out: MIC
Procedure, shortened: as §1

[17] = tested on: Pseudomonas aeruginosa ATCC 27853; test: Antibacterial activity, MIC; conditions: ATCC27853, ATCC 27853, agar two-fold dilution, 37° C., 20 hours, read-out: MIC
Procedure, shortened: as §1

[18] = tested on: Salmonella typhimurium ATCC 14028; test: Antibacterial activity, MIC; conditions: Salmonella enterica; ATCC 14028; agar two-fold dilution, 37° C., 20 hours; read-out: MIC
Procedure, shortened: as §1

[19] = tested on: Serratia marcescens ATCC 27117; test: Antibacterial activity, MIC; conditions: ATCC27117, ATCC 27117, agar two-fold dilution, 37° C., 20 hours, read-out: MIC
Procedure, shortened: as §1

[20] = tested on: Shigella flexneri ATCC 11836; test: Antibacterial activity, MIC; conditions: ATCC11836, agar two-fold dilution, 37° C., 20 hours
Procedure, shortened: as §1

[21] = tested on: Shigella sonnei ATCC 11060; test: Antibacterial activity, MIC; conditions: ATCC11060, ATCC 11060, agar two-fold dilution, 37° C., 20 hours, read-out: MIC
Procedure, shortened: as §1

[22] = tested on: Staphylococcus aureus ATCC 10537; test: Antibacterial activity, MIC; conditions: ATCC10537, ATCC 10537, agar two-fold dilution, 37° C., 20 hours, read-out: MIC
Procedure, shortened: as §1

[23] = tested on: Staphylococcus aureus ATCC 6538p; test: Antibacterial activity, MIC; conditions: ATCC6538P, ATCC 6538p, agar two-fold dilution, 37° C., 20 hours, read-out: MIC
Procedure, shortened: as §1

[24] = tested on: Staphylococcus epidermidis ATCC 12228; test: Antibacterial activity, MIC; conditions: ATCC12228, ATCC 12228, agar two-fold dilution, 37° C., 20 hours, read-out: MIC
Procedure, shortened: as §1

[25] = tested on: Streptococcus faecalis ATCC 29212; test: Antibacterial activity, MIC; conditions: Enterococcus faecalis, ATCC29212; ATCC 29212; agar two-fold dilution, 37° C., 20 hours; read-out: MIC
Procedure, shortened: as §1

Escherichia coli = test: Antibacterial activity against clinically isolated strains, MIC; conditions: 38 clinical isolates, broth microdilution test
Klebsiella pneumoniae = test: as above; conditions: 10 clinical isolates, broth microdilution test; for MIC90: read-out: MIC 90%
[26] = tested on: Staphylococcus aureus methicillin susceptible; test: as above; conditions: methicillin susceptible, 42 clinical isolates, broth microdilution test; for MIC90: read-out: MIC 90%
[27] = tested on: Staphylococcus aureus methicillin resistant; test: as above; conditions: methicillin resistant, 7 clinical isolates, broth microdilution test; for MIC90: read-out: MIC 90%
Pseudomonas aeruginosa = test: as above; conditions: 54 clinical isolates, broth microdilution test; for MIC90: read-out: MIC 90%

SMILES | MIC [1] | MIC [2] | MIC [3] | MIC [4] | MIC [5] | MIC [6] | MIC [7] | MIC [8] | MIC [9] | MIC [10] | MIC [11] | MIC [12] | MIC [13] | MIC [14] | MIC [15] | MIC [16] | MIC [17] | MIC [18] | MIC [19] | MIC [20] | further results
CCO/N=C(\C(=O)NC1C(=O)N2C(C(=O)[O-])=C(CSc3nc(N)cc(N)[n+]3N)CSC12)c1nsc(N)n1 (centres unmarked) [Compound I-17] | 2 µg/mL (≈ 3.52 µM) | 8 µg/mL (≈ 14.1 µM) | 0.13 µg/mL (≈ 0.229 µM) | 0.063 µg/mL (≈ 0.111 µM) | 0.25 µg/mL (≈ 0.44 µM) | 0.016 µg/mL (≈ 0.0282 µM) | 0.13 µg/mL (≈ 0.229 µM) | 0.13 µg/mL (≈ 0.229 µM) | 0.016 µg/mL (≈ 0.0282 µM) | 0.016 µg/mL (≈ 0.0282 µM) | 0.016 µg/mL (≈ 0.0282 µM) | 0.5 µg/mL (≈ 0.881 µM) | 0.5 µg/mL (≈ 0.881 µM) | ≤ 0.008 µg/mL | 4 µg/mL (≈ 7.05 µM) | 0.5 µg/mL (≈ 0.881 µM) | 2 µg/mL (≈ 3.52 µM) | 0.5 µg/mL (≈ 0.881 µM) | 0.25 µg/mL (≈ 0.44 µM) | 0.031 µg/mL (≈ 0.0546 µM) | MIC [21]: 0.13 µg/mL (≈ 0.229 µM); MIC [22]: 0.5 µg/mL (≈ 0.881 µM); MIC [23]: 0.5 µg/mL (≈ 0.881 µM); MIC [24]: 0.25 µg/mL (≈ 0.44 µM); MIC [25]: 32 µg/mL (≈ 56.4 µM); MIC50 (Escherichia coli): 0.13 µg/mL (≈ 0.229 µM); MIC90 (Escherichia coli): 0.25 µg/mL (≈ 0.44 µM); MIC50 (Klebsiella pneumoniae): 0.25 µg/mL (≈ 0.44 µM); MIC90 (Klebsiella pneumoniae): 0.25 µg/mL (≈ 0.44 µM); MIC50 [26]: 0.5 µg/mL (≈ 0.881 µM); MIC90 [26]: 1 µg/mL (≈ 1.76 µM); MIC50 [27]: 16 µg/mL (≈ 28.2 µM); MIC90 [27]: 64 µg/mL (≈ 113 µM); MIC50 (Pseudomonas aeruginosa): 4 µg/mL (≈ 7.05 µM); MIC90 (Pseudomonas aeruginosa): 8 µg/mL (≈ 14.1 µM)
C#CCO/N=C(\C(=O)NC1C(=O)N2C(C(=O)[O-])=C(CSc3nc(N)cc(N)[n+]3N)CSC12)c1csc(N)n1 (centres unmarked) [Compound I-18] | 2 µg/mL (≈ 3.47 µM) | 8 µg/mL (≈ 13.9 µM) | 0.063 µg/mL (≈ 0.109 µM) | 0.063 µg/mL (≈ 0.109 µM) | 0.25 µg/mL (≈ 0.434 µM) | ≤ 0.008 µg/mL | 0.13 µg/mL (≈ 0.225 µM) | 0.063 µg/mL (≈ 0.109 µM) | ≤ 0.008 µg/mL | 0.013 µg/mL (≈ 0.0225 µM) | ≤ 0.008 µg/mL | 0.13 µg/mL (≈ 0.225 µM) | 0.13 µg/mL (≈ 0.225 µM) | ≤ 0.008 µg/mL | 4 µg/mL (≈ 6.94 µM) | 0.5 µg/mL (≈ 0.867 µM) | 2 µg/mL (≈ 3.47 µM) | 0.25 µg/mL (≈ 0.434 µM) | 0.13 µg/mL (≈ 0.225 µM) | 0.016 µg/mL (≈ 0.0277 µM) | MIC [21]: 0.13 µg/mL (≈ 0.225 µM); MIC [22]: 0.25 µg/mL (≈ 0.434 µM); MIC [23]: 0.25 µg/mL (≈ 0.434 µM); MIC [24]: 0.063 µg/mL (≈ 0.109 µM); MIC [25]: 32 µg/mL (≈ 55.5 µM); MIC50 (Escherichia coli): 0.13 µg/mL (≈ 0.225 µM); MIC90 (Escherichia coli): 0.25 µg/mL (≈ 0.434 µM); MIC (Klebsiella pneumoniae): 0.13 µg/mL (≈ 0.225 µM); MIC50 (Klebsiella pneumoniae): 0.13 µg/mL (≈ 0.225 µM); MIC90 (Klebsiella pneumoniae): 0.13 µg/mL (≈ 0.225 µM); MIC50 [26]: 0.25 µg/mL (≈ 0.434 µM); MIC90 [26]: 0.25 µg/mL (≈ 0.434 µM); MIC50 [27]: 128 µg/mL (≈ 222 µM); MIC90 [27]: > 128 µg/mL; MIC50 (Pseudomonas aeruginosa): 4 µg/mL (≈ 6.94 µM); MIC90 (Pseudomonas aeruginosa): 8 µg/mL (≈ 13.9 µM)
